Legend:
Pf (3D7) = assay: Ligand efficiency metrics (LE, LLE, LELP), selectivity and fold changes; set-up: species or system Plasmodium falciparum
[1] = Intrinsic clearance (Cli) in human liver microsomes; type: in vitro ADME; settings: human liver microsome
Text: inhibition at top, C= EC50, D= slope, x= inhibitor concentration and y= % inhibition. […]
reach 100% of inhibition, B was fixed to 100 only when at least 50% of inhibition was reached.
Plasmodium falciparum late stage (IV-V) gametocyte high content imaging assay Plasmodium falciparum NF54-pfs16-LUC-GFP stage IV-V Gametocytes were produced as described previously.5 Compounds were solubilized in DMSO and serially diluted in three concentrations per log standard curves in DM SO. One µl of compound was subsequently diluted in 25µl of water (4% DMSO) and 5µl transferred into the base of 384 well PerkinElmer CellCarrier plates. Forty-five µl of stage IV-V gametocytes (10%P in 0.1%H) were added to the imaging plates which were in turn sealed with a gas permeable membrane and incubated at 37°C, 5% CO 2, 5% O2, 90% N2 and 60% humidity […]
Post incubation, 5µl of MitoTracker® Red CM -H2Xros (MTR) solution (0.66ug/ml) was added to all wells and the plates incubated for a further 16hours. The assay plates were then imaged and the number of viable gametocytes determined for test compounds plus 0.4%DMSO and 5µM Puromycin.
(0.4%DMSO) control values. Percent inhibition was plotted against log compound concentration using a 4 parameter log dose, non-linear regression analysis, with sigmoidal dose response (variable slope) curve fit using Prizm 4.0. IC50 values were obtained from this curve fit. The compound testing was performed in duplicate point within two separate experiments.
Plasmodium berghei ookinete development assay
Assay was performed as previously reported.6 Briefly blood containing P. berghei CTRPp-GFP gametocytes was rapidly harvested from infected mice and introduced to test compounds pre-diluted in ookinete medium (to induce gamete formation and support ookinete development) in 96-well plates. Plates were incubated in the dark at 21°C for 22 hr before GFP fluorescence intensity measured in a plate reader. % inhibition of ookinete formation was calculated with reference to the fluorescence intensity values of a positive control (20 µM cycloheximide) and a solvent-only negative control (DMSO). All assays were performed in triplicate independent experiments and EC50 values calculated in Graphpad Prism.
The aqueous solubility of the test compounds was measured using laser nephelometry, as described previously.7 Compounds were subject to serial dilution from 10 mg/mL to 0.5 mg/mL in DMSO. An aliquot was then mixed with MilliQ water to obtain an aqueous dilution plate with a final concentration range of 100 – 5 μg/mL, with a final DMSO concentration of 1.0%. Triplicate aliquots were transferred to a flat bottomed polystyrene plate which was immediately read on the NEPHELOstar (BMG Lab Technologies). The amount of laser scatter caused by insoluble particulates (relative nephelometry units, RNU) was plotted against compound concentration using a segmental regression fit, with the point of inflection being quoted as the compounds aqueous solubility (μg/mL; […]
Intrinsic Clearance (Cli) experiments
The procedure was carried out as reported previously.7 Test compound (0.5 µM) was incubated with female CD1 mouse, male sprague-dawley rat or pooled human mixed gender liver microsomes (Xenotech LLC TM; 0.5 mg/mL 50 mM potassium phosphate buffer, pH 7.4) and the reaction initiated […]
by the addition of excess NADPH (8 mg/mL 50 mM potassium phosphate buffer, pH 7.4). […]

Mouse pharmacokinetics = type: in vivo, female NMRI mice; settings: intravenous at 3 mg/kg
Experimental: (100 µl) was then removed from both acceptor and donor compartments and mixed with acetonitrile (80 µl) containing an internal standard. The samples were centrifuged (10 min, 5 °C, 3270 g) to sediment precipitated protein and sealed prior to UPLC-MS/MS analysis using a Quattro Premier XE (Waters Corp, USA). Pe was calculated as shown in the below equation:
Pe (nm/sec) = 107 x - In [1 - CA (t) / Cequi]
CA(t) = peak area of compound present in acceptor well at time t = 18000 sec Cequi = [CD(t) * VD + CA(t) * VA] / (VD + VA)
VA = acceptor well volume
CD(t) = peak area of compound present in donor well at time t = 18000 sec Recovery of compound from donor and acceptor wells was calculated and data was only accepted when recovery exceeded 70 %.
Human ether-à-go-go related gene (hERG) K+ assay (Outsourced)
Compounds were tested for inhibition of the human ether-à-go-go-related gene (hERG) K+ channel using IonWorks patch clamp electrophysiology. Eight-point concentration-response curves were generated on 2 occasions using 3-fold serial dilutions from the maximum final assay concentration.
Compound was dosed as a bolus solution intravenously (12) at 3mg free base/kg (dose volume: 5 mL/kg; dose vehicle: 10% DMSO, 90% saline) to female NMRI mice (n=3) or dosed orally (12 and 13) by gavage as a solution at 10 mg free base/kg (dose volume: 10mL/kg; Dose vehicle: 5 or 10% DMSO; 40% PEG400; 50 or 55% distilled water) to female NMRI mice (n=3/dose level). Female NMRI mice were chosen as these represent the sex and strain used for the P.berghei mouse model of malaria. Blood samples (10 µl) were taken from each mouse at 5, 15 and 30 minutes, 1, 2, 4, 6, and 8 hours post-dose, mixed with two volumes of distilled water and stored frozen until UPLC-MS/MS analysis. The level of each compound in mouse blood was determined by UPLC-MS/MS as previously reported.9 Pharmacokinetic parameters were derived from the blood concentration time curve using PKsolutions software v 2.0 (Summit Research Services, USA). […]

[2] = Rat hepatic portal vein study; type: in vivo
[3] = Experimental pKa by potentiometric titration; type: physicochemical; settings: value in parentheses, read-out: R^3 group pKa, experimental
Text: Table 4 SAR Study of the R^3 Substituent: Aromatic Groups | column: R^3 group pKa^a

Structure (SMILES) | LLE (ligand-lipophilicity efficiency) (Pf (3D7)) | HLM Cli [1] [mL min^–1 g^–1] | Clb (Mouse pharmacokinetics) [mL min^–1 kg^–1] | improvement / increase in potency (Pf (3D7); Pf (3D7), relative to the comparator compound of the sentence) [fold] | hepatic extraction [2] [%] | pKa [3]
O=C(NCCN1CCCC1)c1cc(NCCCN2CCOCC2)nc2ccc(F)cc12 [Compound 25, 6-Fluoro-2-((3-morpholinopropyl)amino)-N-(2-(pyrrolidin-1-yl)ethyl)quinoline-4-carboxamide] | 5.4 | <0.5 | 14 |  |  | 
O=C(NCCN1CCCC1)c1cc(NCCCCN2CCOCC2)nc2ccc(Cl)cc12 [Compound 27, 6-Chloro-2-((4-morpholinobutyl)amino)-N-(2-(pyrrolidin-1-yl)ethyl)quinoline-4-carboxamide] | 6.2 | <1 | 4 | 17 |  | 
O=C(NCCN1CCCC1)c1cc(NCCC2CCOCC2)nc2ccc(Cl)cc12 [Compound 30, 6-Chloro-N-(2-(pyrrolidin-1-yl)ethyl)-2-((2-(tetrahydro-2H-pyran-4-yl)ethyl)amino)quinoline-4-carboxamide] |  | 1 | 34 |  | 76 | 
O=C(NCCN1CCCC1)c1cc(-c2ccc(CN3CCOCC3)cc2F)nc2ccc(F)cc12 [Compound 41] |  | 1.5 |  |  |  | 6.3
O=C(NCCN1CCCC1)c1cc(-c2ccc(CN3CCOCC3)cc2Cl)nc2ccc(F)cc12 [Compound 42, 2-(2-Chloro-4-(morpholinomethyl)phenyl)-6-fluoro-N-(2-(pyrrolidin-1-yl)ethyl)quinoline-4-carboxamide] |  |  |  |  |  | 6.3

Reference: publication PMC5108032, “Discovery of a Quinoline-4-carboxamide Derivative with a Novel Mechanism of Action, Multistage Antimalarial Activity, and Potent in Vivo Efficacy” (Journal of Medicinal Chemistry, 2016)
